This note sets out measurements from US10357036B2, “Compounds for controlling arthropods” (priority 2015, dated 2019).

Test [1] deals with Ctenocephalides felis. Briefly: Ctenocephalides felis in vitro contact test with adult cat fleas. It counts as in vivo. The settings on record: application rate 5 μg/cm^2 (=500 g/ha); after 48 h; dead or moribund fleas. In outline: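 Glass tubes were coated with compound in acetone (900 ppm solution gives 5 μg/cm²), dried, then loaded with 5–10 adult cat fleas. Held horizontal at room temperature and ambient humidity for 48 h. Efficacy is the % of fleas dead or moribund (motionless or uncoordinated after knock-down).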

In another test the test system is Rhipicephalus sanguineus. As to the kind of experiment: Rhipicephalus sanguineus in vitro contact test with adult brown dog ticks. It counts as in vivo. The note with it: application rate 5 μg/cm^2 (=500 g/ha); after 48 h; dead or moribund ticks. In outline: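 Adult Rhipicephalus sanguineus (5-10 per tube) held in glass tubes coated with compound from acetone solution, 900 ppm giving 5 μg/cm^2, in the dark at room temperature. After 48 h ticks put on a 45-50° C hotplate up to 5 min; motionless or uncoordinated ticks scored dead/moribund as % efficacy.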

The subject of the next test is Amblyomma hebraeum. Briefly: Amblyomma hebraeum test (tick nymphs, immersion). It counts as in vivo. The settings on record: 100 ppm; after 42 days. The procedure: (§1) • Solvent: dimethyl sulfoxide
(§2) To produce a suitable active ingredient formulation, 10 mg of active ingredient are mixed with 0.5 ml of dimethyl sulfoxide, and the concentrate is diluted with water to the desired concentration.
Tick nymphs (Amblyomma hebraeum) are placed into perforated plastic beakers and immersed in the desired concentration for one minute. The ticks are transferred on filter paper into a Petri dish and stored in a climate-controlled cabinet.

The subject of test [2] is cattle ticks (Boophilus microplus) Parkhurst strain, SP-resistant. Briefly: Boophilus microplus dip test. It counts as in vivo. The note with it: 100 ppm; assessed after 7 days. The procedure, abridged: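 Engorged adult female ticks (8-10 per tube) fully immersed in compound from DMSO stock diluted with water to test concentration, then held in a climate-controlled room. Efficacy scored after 7 days from fertile egg laying, with eggs kept until hatching at about 42 days. 100% means no fertile eggs laid.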

The test system of the next test is Boophilus microplus. Briefly: Boophilus microplus injection test. It counts as in vivo. The settings on record: 20 μg/animal; assessed after 7 days. The procedure:
as §1
1 μl of the active ingredient solution is injected into the abdomen of 5 engorged adult female cattle ticks (Boophilus microplus). The animals are transferred into dishes and kept in a climate-controlled room.

Test [3] deals with Ctenocephalides felis. As to the kind of experiment: Ctenocephalides felis oral test. The note with it: 100 ppm in citrated cattle blood; after 2 days. It counts as in vivo.
For a further test, the system named is Musca domestica. Briefly: Musca domestica test. The note with it: 100 ppm; adult houseflies; after 2 days. It counts as in vivo. On the procedure:
as §1, §2
Vessels containing a sponge treated with sugar solution and the active ingredient formulation of the desired concentration are populated with 10 adult houseflies (Musca domestica).

Test [4] relates to Myzus persicae. Briefly: Myzus persicae spray test (Chinese cabbage leaf discs). The note with it: 100 g/ha; after 6 days. It counts as in vivo. The procedure:
(§3) After 6 days, the efficacy in % is determined.

The subject of another test is Spodoptera frugiperda. Briefly: Spodoptera frugiperda spray test. It counts as in vivo. The settings on record: 100 g/ha; after 7 days.
The next test relates to Tetranychus urticae. Briefly: Tetranychus urticae spray test, OP-resistant (bean leaf discs). It counts as in vivo. The note with it: 100 g/ha; after 6 days. On the procedure: as §3
In the next test the test system is Phaedon cochleariae. Briefly: Phaedon cochleariae spray test. The settings on record: 100 g/ha; after 7 days.
The test system of test [5] is Amaranthus retroflexus (AMARE). Briefly: Herbicidal activity, pre-emergence. The settings on record: 1280 g/ha, 3 weeks. It counts as in vivo. From the text: (§4) Seeds of monocotyledonous and dicotyledonous weed plants and crop plants were placed in wood-fibre pots in sandy loam and covered with soil. The compounds according to the invention, formulated as emulsion concentrates (EC), were then applied to the surface of the covering soil as an emulsion at a water application rate equating to 600 to 800 Uha with addition of 0.2% wetting agent.
(§5) After the treatment, the pots were placed in a greenhouse and kept under good growth conditions for the test plants. The damage to the test plants was scored visually after a test period of 3 weeks by comparison with untreated controls (herbicidal activity in percent (%): 100% activity=the plants have died, 0% activity=like control plants). Here, for example, compounds No. Ia-17, Ia-37, Ia-28 and Ia-56 at an application rate of 1280 g/ha each show 100% efficacy against Amaranthus retroflexus (AMARE) and with the exception of Ia-56, even against Viola tricolor (VIOTR). Furthermore, compounds no. Ia-17, Ia-37 and Ia-28 at the same application rate show an 80% or better efficacy against Matricaria inodorae (MATIN) and Ia-17 and Ia-37 even against Stellaria media (STEME).

In a further test the test system is Viola tricolor (VIOTR). Briefly: Herbicidal activity, pre-emergence. The note with it: 1280 g/ha, 3 weeks. It counts as in vivo.
Text: as §4, §5

In test [6] the test system is Abutilon theophrasti (ABUTH). Briefly: Herbicidal activity, post-emergence. It counts as in vivo. The note with it: 1280 g/ha, 3 weeks. On the procedure: (§6) Seeds of monocotyledonous and dicotyledonous weeds and crop plants were placed in sandy loam in wood-fibre pots, covered with soil and cultivated in a greenhouse under good growth conditions. 2 to 3 weeks after sowing, the test plants are treated at the one-leaf stage. The compounds according to the invention, formulated as emulsion concentrates (EC), were then sprayed onto the green plant parts as an emulsion at a water application rate equating to 600 to 800 Uha with addition of 0.2% wetting agent. After the test plants have been left to stand in the greenhouse under optimal growth conditions for 3 weeks, the efficacy of the preparations was assessed visually in comparison to untreated controls (herbicidal efficacy in percent (%): 100% activity=the plants have died, 0% activity=like control plants). For example, compounds No. Ia-17, Ia-28 and Ia-37 at an application rate of 1280 g/ha each show at least 100% efficacy against Amaranthus retroflexus (AMARE) and Viola tricolor (VOTR).

Test [7] relates to Matricaria inodora (MATIN). As to the kind of experiment: Herbicidal activity, post-emergence. The note with it: 1280 g/ha, 3 weeks. It counts as in vivo. The procedure:
as §6

For a further test, the system named is Stellaria meida (STEME). As to the kind of experiment: Herbicidal activity, post-emergence. It counts as in vivo. The note with it: 1280 g/ha, 3 weeks. The procedure:
as §6

In test [8] the test system is Myzus persicae. Briefly: Myzus persicae spray test (bell pepper plants). It counts as in vivo. The settings on record: 4 ppm; after 6 days. The procedure: To produce further test concentrations, the latter is diluted with emulsifier-containing water. When addition of ammonium salts and/or penetrants is required, these are each added at a concentration of 1000 ppm to the preparation solution.
Bell pepper plants (Capsicum annuum), which are heavily infested by the green peach aphid (Myzus persicae), are treated by being sprayed with the active compound preparation at the desired concentration.
After 6 days, the kill in % is determined.

As to `CC(=O)NCc1cc(-c2cnn(-c3c(C)cc(C(F)(C(F)(F)F)C(F)(F)F)cc3C)c2)ccc1F` [Ia-13], the efficacy in the test on Ctenocephalides felis [1], in the test with Rhipicephalus sanguineus, with Myzus persicae [4], with Spodoptera frugiperda, in the test with Tetranychus urticae and in the test with Phaedon cochleariae was 100% in each case. Moreover, the “efficacy (rate of extermination)” value in the test on Amblyomma hebraeum, with Ctenocephalides felis [3] and with Musca domestica was 100% each time. Moreover, the “efficacy (laying of fertile eggs)” value (in test [2]; with Boophilus microplus) was 100% in each case.

For the compound `CC(=O)NCc1cccc(-c2cnn(-c3c(Cl)cc(C(F)(C(F)(F)F)C(F)(F)F)cc3[S+](C)[O-])c2)c1` (centres unmarked) [Ia-17], the herbicidal efficacy in test [5] was 100%; with Viola tricolor (VIOTR), 100%; in test [6], at least 80%; in [7], at least 80%; with Stellaria meida (STEME) it was at least 80%.

As for `CC(=O)NCc1cc(-c2cnn(-c3c(C)cc(C(F)(C(F)(F)F)C(F)(F)F)cc3C)c2)ccc1Cl` [Ia-95], the efficacy came to 100% with Ctenocephalides felis [1]; 80% with Rhipicephalus sanguineus; 100% in the test with Spodoptera frugiperda; 100% in the test with Tetranychus urticae; 100% in the test on Phaedon cochleariae. The “efficacy (laying of fertile eggs)” value (in test [2]; in the test on Boophilus microplus) was 100% each time. Besides, the “efficacy (rate of extermination)” value in the test on Ctenocephalides felis [3] and in the test on Musca domestica was 100% in each case. Further, the “efficacy (kill)” value with Myzus persicae [8] was 85%.
